Results from patent publication US12473350B2, “Recombinant humanized type III collagen microsphere with innovative spatial structure, and design, preparation process and usethereof” (Nanjing Tzone Biotechnology Co., Ltd., priority 2023, dated 2025).

System: Human skin fibroblasts (HSF cells)
Assay: MTT assay, effect on HSF cell growth
Assay type: cell-based
Settings: 10% DMSO
Description: Dimethyl sulfoxide (DMSO) can dissolve formazan in cells, and its light absorption value can be measured at a wavelength of […] using an enzyme-linked immunosorbent assay, which can indirectly reflect the number of live cells. Within a certain range of cell numbers, the amount of MTT crystals formed is proportional to the number of cells.
Logarithmic phase cells are collected and the cell suspension concentration is adjusted. 100 μL of cell suspension is added per well and plated to adjust the density of the cells to be tested to 10,000 cells/well, and the edge wells are filled with sterile PBS. The cells are incubated under 5% CO2 at 37° C. until the cell monolayer spreads over all the bottom of the wells. Then, the drug in a concentration gradient is added; in principle, the drug can be added once the cells have adhered, with five parallel settings. The incubation is performed under 5% CO2 at 37° C. for 24 h or 48 h and the cells are observed under an inverted microscope. 20 μL of MTT solution (5 mg/mL, i.e., 0.5% MTT) is added to each well and the incubation is continued for 4 h. […] The light absorption value of each well is measured at […] using an Enzyme-Linked Immunosorbent Assay (ELISA) reader. […]

C[S+](C)[O-] [DMSO, Dimethyl Sulfoxide, reference compound]
RGR (24 h): 28.20%
RGR (48 h): 17.15%
